Like-named read-outs stand apart in the source and are kept apart here.
Key:
BChE = BChE (Homo sapiens, UniProt P06276); assay: biochemical
AChE = AChE (Homo sapiens, UniProt P22303); assay: biochemical; details: for Selectivity for AChE: IC50 (BChE)/IC50 (AChE)
[1] = read-out: IC50 BChE, means±SD of three assays, 30 min, 30 °C, pH 8.0
[2] = read-out: IC50 AChE, means±SD of three assays, 30 min, 30 °C, pH 8.0

Sequence of BChE (P06276 29-602): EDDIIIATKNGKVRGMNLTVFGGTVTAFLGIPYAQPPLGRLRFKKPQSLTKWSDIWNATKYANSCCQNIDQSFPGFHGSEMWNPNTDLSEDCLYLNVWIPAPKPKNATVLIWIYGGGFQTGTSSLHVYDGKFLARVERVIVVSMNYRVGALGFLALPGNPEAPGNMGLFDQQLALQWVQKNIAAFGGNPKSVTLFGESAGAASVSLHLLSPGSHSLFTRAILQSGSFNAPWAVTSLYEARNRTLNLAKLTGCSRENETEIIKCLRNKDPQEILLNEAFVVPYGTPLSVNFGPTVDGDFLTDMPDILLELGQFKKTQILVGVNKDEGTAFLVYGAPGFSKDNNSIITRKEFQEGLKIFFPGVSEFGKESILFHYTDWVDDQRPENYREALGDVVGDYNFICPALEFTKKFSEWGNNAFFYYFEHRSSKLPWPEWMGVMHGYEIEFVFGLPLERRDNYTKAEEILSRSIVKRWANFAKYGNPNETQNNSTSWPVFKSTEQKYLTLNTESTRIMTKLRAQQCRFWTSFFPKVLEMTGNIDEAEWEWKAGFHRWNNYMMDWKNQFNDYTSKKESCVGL
Sequence of AChE (P22303 32-614): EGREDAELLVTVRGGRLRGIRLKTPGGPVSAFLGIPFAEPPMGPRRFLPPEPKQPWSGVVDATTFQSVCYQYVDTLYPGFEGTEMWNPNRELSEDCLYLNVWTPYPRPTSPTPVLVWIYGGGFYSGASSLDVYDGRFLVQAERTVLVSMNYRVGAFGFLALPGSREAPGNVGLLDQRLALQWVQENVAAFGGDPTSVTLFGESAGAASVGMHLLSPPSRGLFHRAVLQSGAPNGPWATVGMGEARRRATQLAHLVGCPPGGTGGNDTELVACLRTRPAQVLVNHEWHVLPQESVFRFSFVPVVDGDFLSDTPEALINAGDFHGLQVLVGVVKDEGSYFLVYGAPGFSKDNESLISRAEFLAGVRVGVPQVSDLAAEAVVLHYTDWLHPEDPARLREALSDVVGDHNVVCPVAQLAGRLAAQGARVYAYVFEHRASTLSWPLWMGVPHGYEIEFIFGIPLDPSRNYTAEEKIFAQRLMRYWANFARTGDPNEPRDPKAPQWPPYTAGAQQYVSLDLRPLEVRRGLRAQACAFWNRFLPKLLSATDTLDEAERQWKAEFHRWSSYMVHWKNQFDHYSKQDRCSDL

Row | SMILES | IC50 (BChE) [µM] | IC50 (AChE) [µM] | Selectivity for AChE (AChE) | inhibitory activity against AChE (in words) (AChE) | selectivity over BChE (in words) (AChE) | IC50 (BChE; [1]) [µM] | IC50 (AChE; [2]) [µM] | inhibitory activity against BChE (in words) (BChE)
1 | O=C(/C=C/c1ccc(OCCN2CCCCC2)cc1)c1cc2ccccc2oc1=O [Compound 5f, (E)-3-(3-(4-(2-(piperidin-1-yl)ethoxy)phenyl)acryloyl)-2H-chromen-2-one] | 1.03 ± 0.05 | 0.69 ± 0.06 | 1.49 |  |  |  |  | 
2 | COc1cc(/C=C/C(=O)c2cc3ccccc3oc2=O)cc(OC)c1OCCN1CCCC1 [Compound 13l, (E)-3-(3-(3,5-dimethoxy-4-(2-(pyrrolidin-1-yl)ethoxy)phenyl)acryloyl)-2H-chromen-2-one] | 13.6 ± 0.53 | 29 ± 1.68 | 0.47 |  |  |  |  | 
3 | O=C(/C=C/c1ccccc1OCC(=O)N1CCCCC1)c1cc2ccccc2oc1=O [Compound 11f, (E)-3-(3-(2-(2-oxo-2-(piperidin-1-yl)ethoxy)phenyl)acryloyl)-2H-chromen-2-one] | 106 ± 3.09 | > 500 |  |  |  |  |  | 
4 | CC(C)=CCOc1ccc(/C=C/C(=O)c2cc3ccccc3oc2=O)cc1 [Compound 5j, (E)-3-(3-(4-(3-methylbut-2-enyloxy)phenyl)-prop-2-enoyl)-2H-chromen-2-one] | > 500 | > 500 |  |  |  |  |  | 
5 | CN(C)CCOc1cccc(/C=C/C(=O)c2cc3ccccc3oc2=O)c1 [Compound 6d, (E)-3-(3-(3-(2-(dimethylamino)ethoxy)phenyl)acryloyl)-2H-chromen-2-one] | 15.3 ± 1.16 | 0.92 ± 0.07 | 16.64 |  |  |  |  | 
6 | O=C(/C=C/c1ccccc1OCCN1CCCC1)c1cc2ccccc2oc1=O [Compound 7e, (E)-3-(3-(2-(2-(pyrrolidin-1-yl)ethoxy)phenyl)acryloyl)-2H-chromen-2-one] | 3.76 ± 0.35 | 230 ± 14.8 | 0.02 | poor inhibitory activity | poor selectivity |  |  | 
7 | CCN(CC)CCOc1ccc(/C=C/C(=O)c2cc3ccccc3oc2=O)cc1 [Compound 5g, (E)-3-(3-(4-(2-(diethylamino)ethoxy)phenyl)acryloyl)-2H-chromen-2-one] | 6.21 ± 0.19 | 4.34 ± 0.29 | 1.43 |  |  |  |  | 
8 | COc1cc(/C=C/C(=O)c2cc3ccccc3oc2=O)ccc1OCCN1CCCCC1 [Compound 12m, (E)-3-(3-(3-methoxy-4-(2-(piperidin-1-yl)ethoxy)phenyl)acryloyl)-2H-chromen-2-one] | 0.52 ± 0.01 | 0.37 ± 0.02 | 1.41 |  |  |  |  | 
9 | CN(C)CCOc1ccc(/C=C/C(=O)c2cc3ccccc3oc2=O)cc1 [Compound 5d, (E)-3-(3-(4-(2-(dimethylamino)ethoxy)phenyl)acryloyl)-2H-chromen-2-one] | > 500 | 0.37 ± 0.03 |  |  |  |  |  | 
10 | COc1cc(/C=C/C(=O)c2cc3ccccc3oc2=O)cc(OC)c1OCCN(C)C [Compound 13k, (E)-3-(3-(4-(2-(dimethylamino)ethoxy)-3,5-dimethoxyphenyl)acryloyl)-2-chromen-2-one] |  |  | 1.87 |  |  | 13.2 ± 0.32 | 7.07 ± 0.46 | 
11 | CN(C)CCOc1ccccc1/C=C/C(=O)c1cc2ccccc2oc1=O [Compound 7d, (E)-3-(3-(2-(2-(dimethylamino)ethoxy)phenyl)acryloyl)-2H-chromen-2-one] | 15.2 ± 0.6 | 16.4 ± 0.22 | 0.92 |  |  |  |  | 
12 | O=C(/C=C/c1cccc(OCC(=O)N2CCCCC2)c1)c1cc2ccccc2oc1=O [Compound 10f, (E)-3-(3-(3-(2-oxo-2-(piperidin-1-yl)ethoxy)phenyl)acryloyl)-2H-chromen-2-one] | 223 ± 11.5 | 152 ± 12.8 | 1.46 |  |  |  |  | 
13 | CC(C)CCOc1ccc(/C=C/C(=O)c2cc3ccccc3oc2=O)cc1 [Compound 5i, (E)-3-(3-(4-(isopentyloxy)phenyl)acryloyl)-2H-chromen-2-one] | > 500 | > 500 |  |  |  |  |  | 
14 | O=C(/C=C/c1ccc(OCC(=O)N2CCCC2)cc1)c1cc2ccccc2oc1=O [Compound 9e, (E)-3-(3-(4-(2-oxo-2-(pyrrolidin-1-yl)ethoxy)phenyl)acryloyl)-2H-chromen-2-one] | > 500 | > 500 |  |  |  |  |  | 
15 | CCN(CC)CCOc1cccc(/C=C/C(=O)c2cc3ccccc3oc2=O)c1 [Compound 6g, (E)-3-(3-(3-(2-(diethylamino)ethoxy)phenyl)acryloyl)-2H-chromen-2-one] | 1.12 ± 0.11 | 51.3 ± 1.04 | 0.02 |  |  |  |  | 
16 | CC(C)=CCOc1ccccc1/C=C/C(=O)c1cc2ccccc2oc1=O [Compound 7j, (E)-3-(3-(2-(3-methylbut-2-enyloxy)phenyl)-prop-2-enoyl)-2H-chromen-2-one] | 100 ± 6.84 | > 500 | <0.20 |  |  |  |  | 
17 | O=C(/C=C/c1cccc(OCC(=O)N2CCCC2)c1)c1cc2ccccc2oc1=O [Compound 10e, (E)-3-(3-(3-(2-oxo-2-(pyrrolidin-1-yl)ethoxy)phenyl)acryloyl)-2H-chromen-2-one] | > 500 | > 500 |  |  |  |  |  | 

Row | SMILES | IC50 (BChE) [µM] | IC50 (AChE) [µM] | Selectivity for AChE (AChE) | inhibitory activity against AChE (in words) (AChE) | selectivity over BChE (in words) (AChE) | IC50 (BChE; [1]) [µM] | IC50 (AChE; [2]) [µM] | inhibitory activity against BChE (in words) (BChE)
18 | CN(C)C(=O)COc1ccccc1/C=C/C(=O)c1cc2ccccc2oc1=O [Compound 11d, (E)-N,N-dimethyl-2-(2-(3-oxo-3-(2-oxo-2H-chromen-3-yl)prop-1-en-1-yl)phenoxy)acetamide] | > 500 | > 500 |  |  |  |  |  | 
19 | CC(C)CCOc1ccccc1/C=C/C(=O)c1cc2ccccc2oc1=O [Compound 7i, (E)-3-(3-(2-(isopentyloxy)phenyl)acryloyl)-2H-chromen-2-one] | > 500 | > 500 |  |  |  |  |  | 
20 | COc1cc(/C=C/C(=O)c2cc3ccccc3oc2=O)ccc1OCCN1CCCC1 [Compound 12l, (E)-3-(3-(3-methoxy-4-(2-(pyrrolidin-1-yl)ethoxy)phenyl)acryloyl)-2H-chromen-2-one] | 0.46 ± 0.01 | 1.67 ± 0.04 | 0.28 |  |  |  |  | 
21 | CC(C)=CCOc1cccc(/C=C/C(=O)c2cc3ccccc3oc2=O)c1 [Compound 6j, (E)-3-(3-(3-(3-methylbut-2-enyloxy)phenyl)-prop-2-enoyl)-2H-chromen-2-one] | > 500 | > 500 |  |  |  |  |  | 
22 | O=C(/C=C/c1ccc(OCCN2CCOCC2)cc1)c1cc2ccccc2oc1=O [Compound 5h, (E)-3-(3-(4-(2-morpholinoethoxy)phenyl)acryloyl)-2H-chromen-2-one] | > 500 | > 500 |  | almost has no inhibitory activity |  | > 500 | > 500 | almost has no inhibitory activity
23 | CC(C)CCOc1cccc(/C=C/C(=O)c2cc3ccccc3oc2=O)c1 [Compound 6i, (E)-3-(3-(3-(isopentyloxy)phenyl)acryloyl)-2H-chromen-2-one] | > 500 | > 500 |  |  |  |  |  | 
24 | COc1cc(/C=C/C(=O)c2cc3ccccc3oc2=O)ccc1OCCN(C)C [Compound 12k, (E)-3-(3-(4-(2-(dimethylamino)ethoxy)-3-methoxyphenyl)acryloyl)-2H-chromen-2-one] | 8.48 ± 0.29 | 1.65 ± 0.09 | 5.15 |  |  |  |  | 
25 | O=C(/C=C/c1ccccc1OCCN1CCCCC1)c1cc2ccccc2oc1=O [Compound 7f, (E)-3-(3-(2-(2-(piperidin-1-yl)ethoxy)phenyl)acryloyl)-2H-chromen-2-one] | 4.5 ± 0.22 | 29.9 ± 0.98 | 0.15 |  |  |  |  | 
26 | O=C(/C=C/c1ccccc1OCCN1CCOCC1)c1cc2ccccc2oc1=O [Compound 7h, (E)-3-(3-(2-(2-morpholinoethoxy)phenyl)acryloyl)-2H-chromen-2-one] | 29 ± 1.23 | 261 ± 4.17 | 0.11 |  |  |  |  | 
27 | CN(C)C(=O)COc1cccc(/C=C/C(=O)c2cc3ccccc3oc2=O)c1 [Compound 10d, (E)-N,N-dimethyl-2-(3-(3-oxo-3-(2-oxo-2H-chromen-3-yl)prop-1-en-1-yl)phenoxy)acetamide] | 44 ± 2.37 | > 500 | <0.09 |  |  |  |  | 
28 | COc1cc(/C=C/C(=O)c2cc3ccccc3oc2=O)cc(OC)c1OCCN1CCCCC1 [Compound 13m, (E)-3-(3-(3,5-dimethoxy-4-(2-(piperidin-1-yl)ethoxy)phenyl)acryloyl)-2H-chromen-2-one] | 6.41 ± 0.36 | 9.58 ± 0.8 | 0.67 |  |  |  |  | 
29 | O=C(/C=C/c1ccccc1OCC(=O)N1CCCC1)c1cc2ccccc2oc1=O [Compound 11e, (E)-3-(3-(2-(2-oxo-2-(pyrrolidin-1-yl)ethoxy)phenyl)acryloyl)-2H-chromen-2-one] | > 500 | > 500 |  |  |  |  |  | 
30 | O=C(/C=C/c1cccc(OCCN2CCCC2)c1)c1cc2ccccc2oc1=O [Compound 6e, (E)-3-(3-(3-(2-(pyrrolidin-1-yl)ethoxy)phenyl)acryloyl)-2H-chromen-2-one] | 4.62 ± 0.16 | 3.25 ± 0.14 | 1.42 | moderate inhibitory activity | low selectivity |  |  | 
31 | CN(C)C(=O)COc1ccc(/C=C/C(=O)c2cc3ccccc3oc2=O)cc1 [Compound 9d, (E)-N,N-dimethyl-2-(4-(3-oxo-3-(2-oxo-2H-chromen-3-yl)prop-1-en-1-yl)phenoxy)acetamide] | > 500 | 18.6 ± 1.06 | >26.86 |  |  |  |  | 
32 | O=C(/C=C/c1cccc(OCCN2CCOCC2)c1)c1cc2ccccc2oc1=O [Compound 6h, (E)-3-(3-(3-(2-morpholinoethoxy)phenyl)acryloyl)-2H-chromen-2-one] | > 500 | > 500 |  |  |  |  |  | 
33 | O=C(/C=C/c1cccc(OCCN2CCCCC2)c1)c1cc2ccccc2oc1=O [Compound 6f, (E)-3-(3-(3-(2-(piperidin-1-yl)ethoxy)phenyl)acryloyl)-2H-chromen-2-one] | 4.01 ± 0.14 | 0.61 ± 0.02 | 6.61 |  |  |  |  | 
34 | O=C(/C=C/c1ccc(OCC(=O)N2CCCCC2)cc1)c1cc2ccccc2oc1=O [Compound 9f, (E)-3-(3-(4-(2-oxo-2-(piperidin-1-yl)ethoxy)phenyl)acryloyl)-2H-chromen-2-one] | > 500 | > 500 |  |  |  |  |  | 

Reference: PMC6309603 (Molecular diversity, 2018)
